# Reference: US20240043442A1, “SELECTIVE ESTROGEN RECEPTOR DEGRADERS AND USES THEREOF” (InventisBio LLC, priority 2016, published 2024)
# Target: ER (Homo sapiens (Human), UniProt P03372)
# Experiment: MCF-7 ER degradation assay (high content imaging)
# Type: cell-based
# Settings: MCF-7 cells, 1 nM compound, 4 hours treatment, DMSO control as baseline
# Description: The level of ER degradation by SERD described in this patent was analyzed by cell based high content imaging method. […] Then, 1 μL of compound solution (in DMSO) was added to the cells to make a final concentration of 1 nM per each well of treated cells. DMSO at the same final concentration (%) per each well was used to serve as negative control on each plate. After 4 hours or 24 hours of treatment at 37° C. with 5% CO2, the cells were fixed and permeabilized. Media from each well was aspirated and cells were gently washed with 1×PBS for 5 minutes and the wash procedure was repeated 3 times. Cells was then fixed with 4% formaldehyde freshly made in 1×PBS at room temperature for 20 minutes, followed by gentle washing with 1×PBS, 3 times for 5 minute each. The assay plate was incubated with 200 μl of 1×PBS containing 0.2% Triton-X100 for 5 minutes at room temperature, cells were then washed again with 1×PBS 3 times for 5 minutes each. After this, cells were incubated with the blocking buffer (1×PBS with 5% BSA) at room temperature for 1 hour. For immunostaining, blocking buffer was removed and primary anti-ER antibody (ER1D5, Santa Cruz) diluted in blocking buffer (1:400) was added to each well and cells were incubated overnight at 4° C. The next day, cells were washed with 1×PBS for 3 times with 5 minute each. […] Cells were washed with 1×PBS for 3 times with 5 minute each time. Cells were incubated with DAPI (Beyotime; 1 μg/ml) for 10 minutes and washed with 1×PBS for 3 times with 5 minute each time. […] SERD induced ER degradation in the MCF-7 cells were measured using DMSO negative control as the baseline.
# ER, sequence (P03372 whole entry): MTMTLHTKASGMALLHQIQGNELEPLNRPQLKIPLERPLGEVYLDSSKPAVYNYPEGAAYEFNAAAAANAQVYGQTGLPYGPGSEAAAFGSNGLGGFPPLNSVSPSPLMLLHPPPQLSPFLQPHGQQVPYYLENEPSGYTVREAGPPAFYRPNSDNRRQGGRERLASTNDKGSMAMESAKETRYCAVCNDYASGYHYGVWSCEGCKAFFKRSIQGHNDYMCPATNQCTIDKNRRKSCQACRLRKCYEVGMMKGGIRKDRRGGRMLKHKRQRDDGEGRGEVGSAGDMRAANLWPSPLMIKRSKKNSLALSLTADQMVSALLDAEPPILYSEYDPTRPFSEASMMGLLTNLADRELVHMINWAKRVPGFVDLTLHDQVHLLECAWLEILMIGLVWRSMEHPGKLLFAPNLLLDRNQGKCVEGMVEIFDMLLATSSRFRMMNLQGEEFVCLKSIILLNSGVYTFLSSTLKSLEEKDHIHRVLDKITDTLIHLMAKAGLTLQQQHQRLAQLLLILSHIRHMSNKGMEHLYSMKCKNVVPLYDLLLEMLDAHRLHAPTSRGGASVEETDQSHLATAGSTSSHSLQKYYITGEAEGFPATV
row,SMILES,MCF7 ER Degradation at 4 hr (%)
1,CC1Cc2c([nH]c3cc(F)ccc23)C(c2c(F)cc(/C=C/C(=O)O)cc2F)N1CC(C)(C)F (stereo not shown) [Compound 34A],21

# Same assay, conditions: MCF-7 cells, 1 nM compound, 24 hours treatment, DMSO control as baseline
row,SMILES,MCF7 ER Degradation at 24 hr (%)
1,CC1Cc2c([nH]c3cc(F)ccc23)C(c2c(F)cc(/C=C/C(=O)O)cc2F)N1CC(C)(C)F (stereo not shown) [Compound 34A],20

# Tested on: breast cancer cell line MCF-7
# Experiment: MCF-7 cell growth study (celltiter-glo luminescent viability assay);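 further: viability read by luminescence after compound exposure, relative to DMSO vehicle-treated wells on the same plate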
# Type: cell-based, human
# Settings: Homo sapiens, MCF7, 144 h, MCF-7 cells, 6 days incubation; read-out: IC50 (nM), cell growth inhibition
# Description: Compound activity was analyzed using celltiter-glo luminescent viability assay (Promega #G7572) in breast cancer cell line MCF-7. Cells grown in log phase are trypsinized and seeded into a 96-well cell culture plate at a density of 2×10^3 per well and incubated overnight at 37° C. with 5% CO2 in humidified culture chamber. The next day, compounds were prepared in 100% DMSO and were serially diluted and added into cells in the following final concentrations: 316, 100, 31.6, 10, 3.16, 1, 0.32, 0.1, 0.03, 0.01, 0.003 and 0.001 nM. As a control, same volume and concentration of DMSO vehicle control solution was added to the control wells in each plate. The cells were incubated with compounds at 37° C. culture chamber for 6 days. Promega's celltiter-glo kit was used to analyze the cell viability, according to manufacture's instruction. Briefly, fifty microliter of celltiter-glo reagent was added to each well, plate (covered with aluminum foil) was gently vibrated for 10 min to induce cell lysis at room temperature. Luminescence was measured using a SPECTRAmax i3 reader.
row,SMILES,IC50 [nM]
1,C[C@@H]1Cc2c([nH]c3ccccc23)[C@@H](c2c(F)cc(OCCN3CCCC3)cc2F)N1CC(C)(F)F [Compound 2],0.9
2,C[C@@H]1Cc2c([nH]c3ccccc23)[C@@H](c2c(F)cc(OCCN3CCCCC3)cc2F)N1CC(C)(F)F [Compound 3],0.6
3,CC1Cc2c(oc3ccccc23)C(c2c(Cl)cc(OCCN3CC(CF)C3)cc2Cl)N1CC(C)(C)F (stereo not shown) [Compound 18],8.9
4,C[C@@H]1Cc2c([nH]c3ccccc23)[C@@H](c2c(F)cc(OCCN3CCCCCC3)cc2F)N1CC(C)(C)F [Compound 8],1
5,C[C@@H]1Cc2c([nH]c3ccccc23)[C@@H](c2c(F)cc(OCCN3CC(CF)C3)cc2Cl)N1CC(C)(C)F [Compound 11],0.4
6,C[C@@H]1Cc2c([nH]c3ccccc23)[C@@H](c2c(Cl)cc(OCCN3CC(CF)C3)cc2Cl)N1CC(C)(C)F [Compound 9],3.1
7,C[C@@H]1Cc2c([nH]c3ccccc23)[C@@H](c2c(Cl)cc(OCCN3CC(CF)C3)cc2Cl)N1CC(C)(F)F [Compound 10],3.2
8,CC1Cc2c([nH]c3cc(O)ccc23)C(c2c(F)cc(/C=C/C(=O)O)cc2F)N1CC(C)(C)F (stereo not shown) [Compound 36],16
9,CC1Cc2c(sc3ccccc23)C(c2c(F)cc(/C=C/C(=O)O)cc2F)N1CC(C)(C)F (stereo not shown) [Compound 48A],4.7
10,COc1ccc2[nH]c3c(c2c1)CC(C)N(CC(C)(C)F)C3c1c(F)cc(/C=C/C(=O)O)cc1F (stereo not shown) [Compound 37A],2.9
11,CC(C)CN1C(C)Cc2c([nH]c3ccc(F)cc23)C1c1c(F)cc(/C=C/C(=O)O)cc1F (stereo not shown) [Compound 39A],2.6
12,CC1Cc2c([nH]c3cc(F)ccc23)C(c2c(F)cc(/C=C/C(=O)O)cc2F)N1CC(C)(F)F (stereo not shown) [Compound 35A],2.5
13,CC1Cc2c([nH]c3ccc(F)cc23)C(c2c(Cl)cc(/C=C/C(=O)O)cc2Cl)N1CC(C)(C)F (stereo not shown) [Compound 27B],0.7
14,C[C@@H]1Cc2c([nH]c3ccccc23)[C@@H](c2c(F)cc(/C=C/C(=O)O)cc2F)N1CC1(C)CC1 [Compound 30],1
15,CC1Cc2c([nH]c3ncccc23)C(c2c(F)cc(OCCN3CC(CF)C3)cc2F)N1CC(C)(F)F (stereo not shown) [Compound 19A],3.1
16,CC1Cc2c([nH]c3cc(Cl)ccc23)C(c2c(F)cc(/C=C/C(=O)O)cc2F)N1CC(C)(C)F (stereo not shown) [Compound 43B],0.8
17,CC(C)(F)CN1C(c2c(F)cc(/C=C/C(=O)O)cc2F)c2[nH]c3ccccc3c2CC1C(F)(F)F (stereo not shown) [Compound 31A],0.4
18,CC1Cc2c(oc3ccccc23)C(c2c(Cl)cc(/C=C/C(=O)O)cc2Cl)N1CC(C)(C)F (stereo not shown) [Compound 45],8.9
19,CC1Cc2c([nH]c3ccc(F)cc23)C(c2c(Cl)cc(OCCN3CC(CF)C3)cc2Cl)N1CC(C)(C)F (stereo not shown) [Compound 14B],2.6
20,C[C@@H]1Cc2c([nH]c3ccccc23)[C@@H](c2c(F)cc(/C=C/C(=O)O)cc2F)N1CC(C)(F)F [Compound 29],0.9
21,CC1Cc2c([nH]c3ccc(F)cc23)C(c2c(F)cc(/C=C/C(=O)O)cc2F)N1CC(C)(F)F (stereo not shown) [Compound 33A],1.2
22,CC1Cc2c([nH]c3ncccc23)C(c2c(F)cc(/C=C/C(=O)O)cc2F)N1CC(C)(C)F (stereo not shown) [Compound 32A],1.9
23,C[C@@H]1Cc2c([nH]c3ccccc23)[C@@H](c2c(F)cc(OCCN3CCCCCC3)cc2F)N1CC(C)(F)F [Compound 4],0.9
24,CC1Cc2c(oc3ccccc23)C(c2c(F)cc(/C=C/C(=O)O)cc2F)N1CC(C)(F)F (stereo not shown) [Compound 44A],7.9
25,COc1ccc2c3c([nH]c2c1)C(c1c(F)cc(OCCN2CC(CF)C2)cc1F)N(CC(C)(C)F)C(C)C3 (stereo not shown) [Compound 15A],1.8
26,C[C@@H]1Cc2c([nH]c3ccccc23)[C@@H](c2c(F)cc(/C=C/C(=O)O)cc2Cl)N1CC(C)(F)F [Compound 49],0.5

# Same assay, conditions: MCF-7 cells, 6 days incubation; read-out: IC50 (nM), cell growth inhibition
row,SMILES,IC50 [nM]
1,"CCC1Cc2c([nH]c3ccccc23)C(c2c(F)cc(/C=C/C(=O)O)cc2F)N1CC(C)(C)F (single isomer, unassigned) [Compound 40A]",0.9
2,CC(C)(F)CN1C(c2c(F)cc(OCCN3CC(CF)C3)cc2F)c2[nH]c3ccccc3c2CC1C(F)(F)F (stereo not shown) [Compound 16A],0.6
3,"CC1Cc2c([nH]c3ccc(Cl)cc23)C(c2c(F)cc(/C=C/C(=O)O)cc2F)N1CC(C)(C)F (single isomer, unassigned) [Compound 42B]",> 100
4,"CC1Cc2c([nH]c3ccc(Cl)cc23)C(c2c(F)cc(/C=C/C(=O)O)cc2F)N1CC(C)(C)F (single isomer, unassigned) [Compound 42A]",1.9
5,CC1Cc2c([nH]c3ccc(O)cc23)C(c2c(F)cc(/C=C/C(=O)O)cc2F)N1CC(C)(C)F (stereo not shown) [Compound 23],4.2
6,CC1Cc2c([nH]c3ccc(F)cc23)C(c2c(Cl)cc(/C=C/C(=O)O)cc2Cl)N1CC(C)(F)F (stereo not shown) [Compound 28],1.3
7,C[C@@H]1Cc2c([nH]c3ccccc23)[C@@H](c2c(F)cc(OCCN3CC(CF)C3)cc2F)N1CC(C)(F)F [Compound 1],0.3
8,CC1Cc2c(oc3ccccc23)C(c2c(F)cc(OCCN3CC(CF)C3)cc2F)N1CC(C)(C)F (stereo not shown) [Compound 17A],0.8
9,"CCC1Cc2c([nH]c3ccccc23)C(c2c(F)cc(/C=C/C(=O)O)cc2F)N1CC(C)(C)F (single isomer, unassigned) [Compound 40B]",> 100
10,COc1ccc2c3c([nH]c2c1)C(c1c(F)cc(/C=C/C(=O)O)cc1F)N(CC(C)(C)F)C(C)C3 (stereo not shown) [Compound 22A],2.6
11,CC1Cc2c([nH]c3ccc(F)cc23)C(c2c(F)cc(OCCN3CC(CF)C3)cc2F)N1CC(C)(C)F (stereo not shown) [Compound 13A],0.5
12,C[C@@H]1Cc2c([nH]c3ccccc23)[C@@H](c2c(F)cc(/C=C/C(=O)O)cc2F)N1CC1(F)CC1 [Compound 24],1.9

# Tested on: not listed separately
# Experiment: Human hepatocyte clearance study
# Type: in vitro ADME
# Settings: human, pooled cryopreserved human hepatocytes (suspension); read-out: Human In vitro Clint (μL/min/10^6 cells)
# Description: (§1) The in vitro hepatocyte clearance of compound described here was studied using pooled human hepatocytes purchased from BioreclamationlVT (Westbury, NY, Cat #X008001, Lot #TQJ). Assay was conducted according to manufacture's instruction. Briefly, mM tock solutions of test compound and positive control (Verapamil) were prepared in 100% DMSO. Thawing media (50 mL) used in the study consists of: 31 mL Williams E medium (GIBCO Cat #12551-032); 15 mL isotonic percoll (GE Healthcare Cat #17-0891-09); 500 uL 100×GlutaMax (GIBCO Cat #35050); 750 uL HEPES (GIBCO Cat #15630-080); 2.5 mL FBS (Corning Cat #35-076-CVR); 50 uL human insulin (GIBCO Cat #12585-014) and 5 uL dexamethasone (NICPBP). Incubation media is made of Williams E medium supplemented with 1×GlutaMax. Thawing medium and supplement incubation medium (serum-free) were placed in a 37° C. water bath for at least 15 minutes prior to use. Compound stock solutions were diluted to 100 μM by combining 198 μt of 50% acetonitrile/50% water and 2 μL of 10 mM stock solution. Verapamil was use as positive control in the assay. Vials of cryopreserved hepatocytes were removed from storage and thawed in a 37° C. water bath with gentle shaking. Contents of the vial were poured into the 50 mL thawing medium conical tube. Vials were centrifuged at 100 g for 10 minutes at room temperature. Thawing medium was aspirated and hepatocytes were re-suspended with serum-free incubation medium to yield ˜1.5×10^6 cells/mL. Hepatocyte viability and density were counted using a Trypan Blue exclusion, and then cells were diluted with serum-free incubation medium to a working cell density of 0.5×10^6 viable cells/mL. Then, a portion of the hepatocytes at 0.5×10^6 viable cells/mL was boiled for 5 min prior to adding to the plate as negative control to eliminate the enzymatic activity so that little or no substrate turnover should be observed. The boiled hepatocytes were used to prepare negative samples. Aliquots of 198 μL hepatocytes were dispensed into each well of a 96-well non-coated plate. The plate was placed in the incubator on an orbital shaker at 500 rpm for approximately 10 minutes. Aliquots of 2 μL of the 100 μM test compound or positive control were added into respective wells of the non-coated 96-well plate to start the reaction. This assay was performed in duplicate. The plate was incubated in the incubator on an orbital shaker at 500 rpm for the designed time points. Twenty-five microliter of contents were transferred and mixed with 6 volumes (150 μL) of cold acetonitrile with IS (200 nM imipramine, 200 nM labetalol and 200 nM diclofenac) to terminate the reaction at time points of 0, 15, 30, 60, 90 and 120 minutes. Samples were centrifuged at 3,220 g for 25 minutes and aliquots of 150 μL of the supernatants was used for LC-MS/MS analysis. For data analysis, all calculations were carried out using Microsoft Excel. Peak areas were determined from extracted ion chromatograms. The in vitro half-life (t1/2) of parent compound was determined by regression analysis of the percent parent disappearance vs. time curve. The in vitro half-life (in vitro t1/2) was determined from the slope value: in vitro t1/2=0.693/k. […] Scaling factors for in vivo intrinsic clearance prediction using human hepatocytes are listed as: liver weight (g liver/kg body weight): 25.7; hepatocyte concentration (10^6 cells/g liver): 99; scaling factor: 2544.3.
row,SMILES,hepatocyte CLint at 1 µM [µL/min/1e6 cells]
1,C[C@@H]1Cc2c([nH]c3ccccc23)[C@@H](c2c(F)cc(OCCN3CC(CF)C3)cc2Cl)N1CC(C)(C)F [Compound 11],2
2,C[C@@H]1Cc2c([nH]c3ccccc23)[C@@H](c2c(F)cc(/C=C/C(=O)O)cc2F)N1CC(C)(F)F [Compound 29],2.4

# Same assay, conditions: human, pooled cryopreserved human hepatocytes (suspension); read-out: Human In vitro T1/2
row,SMILES,half-life at 1 µM [h]
1,C[C@@H]1Cc2c([nH]c3ccccc23)[C@@H](c2c(F)cc(OCCN3CC(CF)C3)cc2Cl)N1CC(C)(C)F [Compound 11],11.1
2,C[C@@H]1Cc2c([nH]c3ccccc23)[C@@H](c2c(F)cc(/C=C/C(=O)O)cc2F)N1CC(C)(F)F [Compound 29],9.52

# Same assay, conditions: pooled cryopreserved human hepatocytes (suspension); human hepatocytes, scaling factor 2544.3; read-out: Human Scale-up Clint
row,SMILES,CLint scaled at 1 µM [mL/min/kg]
1,C[C@@H]1Cc2c([nH]c3ccccc23)[C@@H](c2c(F)cc(OCCN3CC(CF)C3)cc2Cl)N1CC(C)(C)F [Compound 11],5.3
2,C[C@@H]1Cc2c([nH]c3ccccc23)[C@@H](c2c(F)cc(/C=C/C(=O)O)cc2F)N1CC(C)(F)F [Compound 29],6.2

# Tested on: pooled human hepatocytes
# Experiment: Human hepatocyte clearance study
# Type: in vitro ADME
# Settings: human hepatocytes
# Description: as §1
SMILES,Human In vitro Clint (μL/min/10^6 cells),Human In vitro T1/2 [h]
C[C@@H]1Cc2c([nH]c3ccccc23)[C@@H](c2c(F)cc(OCCN3CC(CF)C3)cc2F)N1CC(C)(F)F [Compound 1],1.6,14.2

# Same assay, conditions: human hepatocytes 0.5x10^6 viable cells/mL, 120 min
row,SMILES,Human Hepatocyte Remaining Percentage @ 120 min (%)
1,C[C@@H]1Cc2c([nH]c3ccccc23)[C@@H](c2c(F)cc(OCCN3CC(CF)C3)cc2Cl)N1CC(C)(C)F [Compound 11],83
2,C[C@@H]1Cc2c([nH]c3ccccc23)[C@@H](c2c(F)cc(OCCN3CC(CF)C3)cc2F)N1CC(C)(F)F [Compound 1],88
3,C[C@@H]1Cc2c([nH]c3ccccc23)[C@@H](c2c(F)cc(/C=C/C(=O)O)cc2F)N1CC(C)(F)F [Compound 29],83

# Same assay, conditions: human hepatocytes, scaling factor 2544.3
row,SMILES,Human Scale-up Clint [mL/min/kg]
1,C[C@@H]1Cc2c([nH]c3ccccc23)[C@@H](c2c(F)cc(OCCN3CC(CF)C3)cc2F)N1CC(C)(F)F [Compound 1],4.1
